Test results: patent publication US11952369B2 (Kadmon Corporation, LLC, priority 2022, dated 2024)
Like-named read-outs stand apart in the source and are kept apart here.

How the values were obtained:
ROCK2 = target: T1, ROCK2 (Rattus norvegicus, UniProt Q62868); test: Inhibition of ROCK2 enzymatic activity, immunoabsorbed full length enzyme, S6 kinase substrate peptide, [γ33P]ATP; type: biochemical; conditions: for Ki: ROCK2
T1 construct: Full length rat ROCK1 and ROCK2 proteins were isolated from various tumor cell lines or tissues by immunoabsorption; endogenous in cells
T1 sequence (Q62868 whole entry): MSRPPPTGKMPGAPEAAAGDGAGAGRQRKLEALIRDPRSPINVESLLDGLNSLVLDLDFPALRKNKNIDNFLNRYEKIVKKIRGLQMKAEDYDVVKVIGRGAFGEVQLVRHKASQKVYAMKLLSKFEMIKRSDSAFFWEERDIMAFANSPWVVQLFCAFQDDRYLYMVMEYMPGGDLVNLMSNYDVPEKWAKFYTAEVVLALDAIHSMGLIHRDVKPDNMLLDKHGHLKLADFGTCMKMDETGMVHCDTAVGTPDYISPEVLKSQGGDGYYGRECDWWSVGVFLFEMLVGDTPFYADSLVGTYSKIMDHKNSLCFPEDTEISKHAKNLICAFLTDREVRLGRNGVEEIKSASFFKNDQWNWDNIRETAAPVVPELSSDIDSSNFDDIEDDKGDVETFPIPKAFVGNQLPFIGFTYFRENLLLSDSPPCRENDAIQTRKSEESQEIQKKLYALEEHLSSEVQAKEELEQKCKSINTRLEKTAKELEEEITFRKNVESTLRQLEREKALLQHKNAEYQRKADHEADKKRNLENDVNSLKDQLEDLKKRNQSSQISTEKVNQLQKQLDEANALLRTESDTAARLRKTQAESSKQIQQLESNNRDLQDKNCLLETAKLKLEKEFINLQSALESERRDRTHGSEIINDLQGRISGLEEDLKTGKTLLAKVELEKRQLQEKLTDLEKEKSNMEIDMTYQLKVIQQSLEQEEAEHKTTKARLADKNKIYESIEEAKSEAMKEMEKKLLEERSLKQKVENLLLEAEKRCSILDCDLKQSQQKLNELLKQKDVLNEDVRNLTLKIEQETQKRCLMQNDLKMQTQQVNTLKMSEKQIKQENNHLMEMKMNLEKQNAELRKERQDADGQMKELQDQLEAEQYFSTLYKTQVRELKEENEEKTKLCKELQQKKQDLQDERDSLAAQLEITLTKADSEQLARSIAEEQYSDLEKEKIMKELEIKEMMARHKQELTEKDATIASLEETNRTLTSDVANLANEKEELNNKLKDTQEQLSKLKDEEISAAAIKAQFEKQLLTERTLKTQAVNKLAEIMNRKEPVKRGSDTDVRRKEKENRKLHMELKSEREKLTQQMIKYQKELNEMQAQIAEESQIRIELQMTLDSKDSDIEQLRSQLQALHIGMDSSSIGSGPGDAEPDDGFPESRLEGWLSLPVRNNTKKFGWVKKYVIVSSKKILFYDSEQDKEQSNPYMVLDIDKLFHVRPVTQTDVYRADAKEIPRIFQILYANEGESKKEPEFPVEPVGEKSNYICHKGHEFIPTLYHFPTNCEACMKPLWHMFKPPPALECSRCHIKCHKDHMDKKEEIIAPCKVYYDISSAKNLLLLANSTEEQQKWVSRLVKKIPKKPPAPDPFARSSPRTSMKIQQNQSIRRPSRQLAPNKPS
Procedure: Full length rat ROCK1 and ROCK2 proteins were isolated from various tumor cell lines or tissues by immunoabsorption to 24-well microtiter plates pre-coated with antibodies specific for each isozyme. Reactions were initiated by the addition of S6 kinase substrate peptide, [γ33P]ATP, and study drug, and incubated at 37° C. for 20 minutes. Reactions were terminated by addition of phosphoric acid and the radioactivity was quantified using standard methods.

cytochrome P450 CYP3A4 = cytochrome P450 CYP3A4 (Homo sapiens, UniProt P08684); test: In vitro assessments of belumosudil metabolism; type: in vitro ADME
Sequence of cytochrome P450 CYP3A4 (P08684 whole entry): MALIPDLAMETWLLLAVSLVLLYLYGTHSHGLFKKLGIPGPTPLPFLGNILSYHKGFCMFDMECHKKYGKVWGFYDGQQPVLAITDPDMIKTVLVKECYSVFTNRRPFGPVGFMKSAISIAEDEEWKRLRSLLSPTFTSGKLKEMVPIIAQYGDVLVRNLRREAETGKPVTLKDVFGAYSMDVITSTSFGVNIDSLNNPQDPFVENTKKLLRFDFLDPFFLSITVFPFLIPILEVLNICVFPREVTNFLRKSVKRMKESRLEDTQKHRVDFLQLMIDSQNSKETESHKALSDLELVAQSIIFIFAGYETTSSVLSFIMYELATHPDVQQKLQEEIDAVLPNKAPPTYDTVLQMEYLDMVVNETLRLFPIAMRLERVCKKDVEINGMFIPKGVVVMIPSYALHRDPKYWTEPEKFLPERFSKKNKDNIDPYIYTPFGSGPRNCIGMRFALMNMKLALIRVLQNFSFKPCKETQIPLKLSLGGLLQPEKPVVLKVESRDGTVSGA

Solubility = type: physicochemical; conditions: in vitro assessments
[1] = Phase 1 study part 1: absolute bioavailability, oral 200-mg tablet plus [14C]-belumosudil IV microtracer, plasma PK; type: in vivo, human; conditions: for F, AUCinf (absolute bioavailability, AUCinf,oral/AUCinf,IV): dose-adjusted
Procedure: This was a single-center, nonrandomized, open-label, 2-part study in 5 healthy male subjects aged 30 to 65 years. All oral doses were administered following an overnight fast and a standard breakfast on the day of dosing.
(timed to occur at the expected maximum concentration [Cmax]). To determine absolute bioavailability, a microtracer dose was chosen as it negates the need for an IV formulation with good stability. Additionally, due to use of a very low dose, further nonclinical studies such as local tolerance and general toxicology studies were not warranted.
Blood samples for IV [^14C]-belumosudil PK analysis and total radioactivity were collected at −0.25, −0.16, −0.08, 0, 0.08, 0.16, 0.25, 0.5, 0.75, 1, 1.5, 2, 3, 4, 5, 6, 8, 10, 12, 22, 34, and 46 hours after the end of infusion (EOI). All samples were processed to plasma within 30 minutes of collection by centrifugation at 2000 g for 10 minutes at 4° C., and
Total [^14C]-belumosudil concentrations were determined by accelerator mass spectrometry (AMS). […] Selected samples were diluted with commercial plasma to ensure that concentrations would fall within the acceptable range for AMS analysis. The samples were converted to graphite through combustion to CO2 followed by reduction to graphite. The graphite targets were then analyzed by AMS (LLOQ of 0.00489, 0.00557, 0.00485, 0.00402, and 0.00372 ng equiv/mL for individual subjects). All ^14C data was background-corrected based on predose [^14C]-belumosudil concentrations.
Eluate fractions corresponding to [^14C]-belumosudil were collected before AMS analysis (LLOQ of 1.55 pg equiv/mL).
PK parameter estimates were used to calculate absolute bioavailability and metabolite-to-parent ratio.

[2] = Phase 1 study part 2: metabolite identification and profiling in plasma, urine and feces; type: in vivo, human; conditions: mean across subjects
Procedure: To determine the most appropriate sampling pools for metabolite identification/profiling, plasma, urine, and fecal samples were pooled based on mass balance data obtained as described above. Plasma samples were pooled for individual subjects by time points that represented at least 80% of the plasma total radioactivity, as well as pooled across subjects before dosing and at 4-hour and 8-hour time points. Urine samples were pooled from 0 to 24 hours for individual subjects and across subjects for predose and 0- to 6-hour intervals. Fecal samples were pooled for individual subjects depending on time points that represented at least 80% of the […] total radioactivity and across subjects at 0- to 24- and 24- to 48-hour intervals.
[^14C]-belumosudil concentrations were quantified by LC-MS/MS. Chemical structures were then identified for those radioactive components that accounted for >10% of circulating radioactivity in plasma and >10% of the dose in urine and feces. Radioactive components that represented <10% of circulating radioactivity in plasma and <10% of the dose in urine and feces were also identified. Metabolite identification was then performed using accurate mass positive and negative ion full scan and positive ion product ion analyses. […] Any identified components were compared with [^14C] radiochromatograms to identify the metabolite. Predose plasma and urine pools were used to correct for endogenous components during metabolite identification.

[3] = Phase 1 study: safety assessments; type: in vivo, human
Procedure: Safety was assessed throughout the study by AEs, vital signs, electrocardiograms, physical examinations, and clinical laboratory tests. The safety population included all subjects who received at least 1 dose of the study drug (oral or IV) in either part of the study.

[4] = Metabolite exposure quantified in clinical trials of the belumosudil development program; type: in vivo, human; conditions: clinical trials across the belumosudil development program
[5] = arithmetic mean (standard deviation), Part 1, belumosudil after oral 200-mg tablet
[6] = arithmetic mean (standard deviation), Part 1, oral 200-mg tablet vs IV microtracer
[7] = geometric mean (geometric CV %), Part 1, belumosudil after oral 200-mg tablet
[8] = geometric mean (geometric CV %), Part 1, oral 200-mg tablet vs IV microtracer

Structure (SMILES): CC(C)NC(=O)COc1cccc(-c2nc(Nc3ccc4[nH]ncc4c3)c3ccccc3n2)c1 [Belumosudil, 2-{3-[4-(1H-indazol-5-ylamino)-2-quinazolinyl]phenoxy}-N-(propan-2-yl) acetamide]
- Ki (ROCK2): 40 ± 5 nM
- enzyme dependence of metabolism (cytochrome P450 CYP3A4): primarily dependent on cytochrome P450 CYP3A4 activity
- pH dependence of solubility (Solubility): pH dependent
- time at which peak belumosudil concentrations were reached after the oral dose ([1]; Part 1, oral 200-mg tablet): 3 h
- AUCextrap [1, 5]: 2.18 (0.919) %
- AUCinf [1, 5]: 8890 (4240) ng or ng equiv × h/mL
- AUClast [1, 5]: 8730 (4270) ng or ng equiv × h/mL
- Clearanance (apparent clearance) [1, 5]: 423 (126) mL/min
- Cmax [1, 5]: 1960 (649) ng or ng equiv/mL
- F, AUCinf (absolute bioavailability) [1, 6]: 64.5 (10.4) %
- F, Cmax (bioavailability) [1, 6]: 23.8 (2.21) %
- AUCextrap [1, 7]: 1.95 (64.6); %
- AUCinf [1, 7]: 8300 (40.2); ng or ng equiv × h/mL
- AUClast [1, 7]: 8120 (41.2); ng or ng equiv × h/mL
- Clearanance (apparent clearance) [1, 7]: 402 (40.2); mL/min
- Cmax [1, 7]: 1870 (36.7); ng or ng equiv/mL
- F, Cmax (bioavailability) [1, 8]: 23.7(9.3); %
- F, AUCinf (absolute bioavailability, AUCinf,oral/AUCinf,IV) [1, 8]: 63.7 (17.3); %
- F, AUCinf (absolute bioavailability, AUCinf,oral/AUCinf,IV) ([1]; geometric mean (geometric CV %), Part 1, oral 200-mg tablet vs IV microtracer, listed as belumosudil): 63.7%
- half-life ([1]; male, human, plasma, other: intravenous and oral, IV and oral dosing comparable, read-out: half-life values following IV and oral dosing): 5 to 6 h
- Tmax ([1]; male, human, plasma, po, 200 mg): 2 h
- half-life ([1]; male, human, plasma, po, 200 mg, arithmetic mean (standard deviation), Part 1, belumosudil after oral 200-mg tablet, read-out: T1/2 (converted)): 6.05 h
- half-life ([1]; male, human, plasma, po, 200 mg, geometric mean (geometric CV %), Part 1, belumosudil after oral 200-mg tablet, read-out: T1/2 (terminal half-life) (converted)): 5.3 h
- % ROI, feces (mean % contribution to total sample radioactivity) [2]: (29.60) %
- % ROI, feces (mean % contribution to total sample radioactivity) ([2]; listed as belumosudil): 30%
- % ROI, plasma (mean % contribution to total plasma radioactivity) [2]: P6 (64.17) %
- % ROI, plasma (mean % contribution to total plasma radioactivity) ([2]; listed as belumosudil): 64%
- laboratory, vital sign, electrocardiogram, physical examination findings ([3]; either part of the study): No clinically significant laboratory, vital sign, electrocardiogram, or physical examination findings
- deaths, serious AEs, severe AEs, AEs leading to withdrawal ([3]; healthy male subjects, both parts of the study): no deaths, serious AEs, AEs of severe intensity, or AEs leading to subject withdrawal
- treatment-emergent AE ([3]; part 1, 200-mg tablet followed by [14C]-belumosudil microtracer infusion, one event, resolved spontaneously 2.5 hours after onset): mild, possibly related rash
- treatment-emergent AEs ([3]; part 2, 200-mg [14C]-belumosudil capsule): no treatment-emergent AEs were reported

Structure (SMILES): NC(=O)COc1cccc(-c2nc(Nc3ccc4[nH]ncc4c3)c3ccccc3n2)c1 [KD025m1, 2-(3-(4-(1H-indazol-5-ylamino)quinazolin-2-yl)phenoxy)acetamide]
- Ki (ROCK2): 55 ± 2 nM
- inhibition of ROCK2 (Ki) relative to belumosudil (ROCK2; fold lower inhibition than belumosudil): comparable
- exposure relative to the parent [4]: < 5%
